Assay results as given in publication PMC5513037, “Examining the influence of specificity ligands and ATP-competitive ligands on the overall effectiveness of bivalent kinase inhibitors” (Proteome Science, 2017).

Tests used:
Test in all cases: KAM-matrix competition in K562 lysate;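 for 0.001 uM KAM: median log10 fold change of treatment over DMSO control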;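 for 0.01 uM KAM: median log10 fold change of treatment over DMSO control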;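 for 0.1 uM KAM: median log10 fold change of treatment over DMSO control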;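 for 1 uM KAM: median log10 fold change of treatment over DMSO control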;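 for 10 uM KAM: median log10 fold change of treatment over DMSO control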
Type in all cases: binding
MAP3K4 = target: T1, MAP3K4 (Homo sapiens, UniProt Q9Y6R4);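 for 0.001 uM KAM: median log10 fold change of treatment over DMSO control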;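 for 0.01 uM KAM: median log10 fold change of treatment over DMSO control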;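 for 0.1 uM KAM: median log10 fold change of treatment over DMSO control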;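 for 1 uM KAM: median log10 fold change of treatment over DMSO control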;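 for 10 uM KAM: median log10 fold change of treatment over DMSO control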
T1 construct: endogenous in cells; host or cells: K562
Description: (§1) Supplement 12953_2017_125_MOESM1_ESM.zip/MS_Supp Info.xlsx, sheet "KAM" | column: 10 uM KAM; 1 uM KAM; 0.1 uM KAM; 0.01 uM KAM; 0.001 uM KAM; RB50

MAP3K7 = target: T2, MAP3K7 (Homo sapiens, UniProt O43318)
T2 construct: endogenous in cells; host or cells: K562 cells (lysate)
T2 sequence (O43318 1-606): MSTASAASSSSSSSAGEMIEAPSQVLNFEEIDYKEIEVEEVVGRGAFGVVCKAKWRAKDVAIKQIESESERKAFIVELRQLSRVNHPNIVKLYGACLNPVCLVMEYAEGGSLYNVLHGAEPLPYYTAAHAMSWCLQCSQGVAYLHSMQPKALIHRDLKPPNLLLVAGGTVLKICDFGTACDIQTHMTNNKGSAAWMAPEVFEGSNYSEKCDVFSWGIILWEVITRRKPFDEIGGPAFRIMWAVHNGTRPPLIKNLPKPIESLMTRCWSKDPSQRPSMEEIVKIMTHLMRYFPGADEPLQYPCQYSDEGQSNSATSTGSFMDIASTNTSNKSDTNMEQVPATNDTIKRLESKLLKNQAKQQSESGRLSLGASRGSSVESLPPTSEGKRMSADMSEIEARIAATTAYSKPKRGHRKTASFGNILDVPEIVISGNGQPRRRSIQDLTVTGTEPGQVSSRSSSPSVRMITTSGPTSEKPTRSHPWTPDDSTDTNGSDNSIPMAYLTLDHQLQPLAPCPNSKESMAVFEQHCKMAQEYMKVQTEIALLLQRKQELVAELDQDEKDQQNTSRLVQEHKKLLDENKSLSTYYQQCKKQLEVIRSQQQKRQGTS
Description: as §1

MAST4 = target: T3, MAST4 (Homo sapiens, UniProt O15021)
T3 construct: endogenous in cells; host or cells: K562
Description: as §1

MERTK = target: T4, MERTK (Homo sapiens, UniProt Q12866);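 for 0.001 uM KAM: median log10 fold change of treatment over DMSO control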;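 for 0.01 uM KAM: median log10 fold change of treatment over DMSO control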;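 for 0.1 uM KAM: median log10 fold change of treatment over DMSO control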;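 for 1 uM KAM: median log10 fold change of treatment over DMSO control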;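 for 10 uM KAM: median log10 fold change of treatment over DMSO control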
T4 construct: endogenous in cells; host or cells: K562
T4 sequence (Q12866 21-999): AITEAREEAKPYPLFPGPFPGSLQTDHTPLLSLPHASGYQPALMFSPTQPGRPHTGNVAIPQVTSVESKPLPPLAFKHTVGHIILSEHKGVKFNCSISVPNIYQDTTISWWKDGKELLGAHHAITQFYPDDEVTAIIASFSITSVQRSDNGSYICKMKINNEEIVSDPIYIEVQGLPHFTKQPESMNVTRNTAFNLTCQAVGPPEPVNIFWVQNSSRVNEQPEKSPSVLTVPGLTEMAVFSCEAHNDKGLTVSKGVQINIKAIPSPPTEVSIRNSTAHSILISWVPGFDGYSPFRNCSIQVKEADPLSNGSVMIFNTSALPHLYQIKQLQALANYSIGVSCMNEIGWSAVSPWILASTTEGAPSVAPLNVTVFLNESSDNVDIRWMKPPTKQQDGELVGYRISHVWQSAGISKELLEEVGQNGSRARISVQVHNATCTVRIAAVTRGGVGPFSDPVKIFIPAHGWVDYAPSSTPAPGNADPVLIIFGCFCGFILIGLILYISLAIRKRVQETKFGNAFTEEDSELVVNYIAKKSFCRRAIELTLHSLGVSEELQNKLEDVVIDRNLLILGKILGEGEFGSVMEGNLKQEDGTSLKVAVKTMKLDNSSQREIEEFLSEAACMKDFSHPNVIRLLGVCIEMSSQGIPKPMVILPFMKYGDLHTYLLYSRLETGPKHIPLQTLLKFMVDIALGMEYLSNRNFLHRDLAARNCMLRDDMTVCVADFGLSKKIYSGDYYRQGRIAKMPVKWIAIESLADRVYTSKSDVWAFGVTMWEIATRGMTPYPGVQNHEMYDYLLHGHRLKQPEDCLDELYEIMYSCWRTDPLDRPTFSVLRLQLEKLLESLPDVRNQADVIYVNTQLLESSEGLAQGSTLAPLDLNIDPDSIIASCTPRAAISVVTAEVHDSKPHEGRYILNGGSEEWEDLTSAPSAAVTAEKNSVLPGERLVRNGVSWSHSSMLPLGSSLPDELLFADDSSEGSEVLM
Description: as §1

PEAK1 = target: T5, PEAK1 (Homo sapiens, UniProt Q9H792);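 for 0.001 uM KAM: median log10 fold change of treatment over DMSO control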;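 for 0.01 uM KAM: median log10 fold change of treatment over DMSO control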;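 for 0.1 uM KAM: median log10 fold change of treatment over DMSO control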;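 for 1 uM KAM: median log10 fold change of treatment over DMSO control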;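 for 10 uM KAM: median log10 fold change of treatment over DMSO control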
T5 construct: endogenous in cells; host or cells: K562
Description: as §1

PRKCA = target: T6, PRKCA (Homo sapiens, UniProt P17252)
T6 construct: endogenous in cells; host or cells: K562 lysate
Description: as §1

TTN = target: T7, TTN (Homo sapiens, UniProt Q8WZ42);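 for 0.001 uM KAM: median log10 fold change of treatment over DMSO control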;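 for 0.01 uM KAM: median log10 fold change of treatment over DMSO control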;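 for 0.1 uM KAM: median log10 fold change of treatment over DMSO control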;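 for 1 uM KAM: median log10 fold change of treatment over DMSO control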;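 for 10 uM KAM: median log10 fold change of treatment over DMSO control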
T7 construct: endogenous in cells; host or cells: K562
Description: as §1

[1] = KAM 0.001-10 uM, read-out: RB50 (the source's name)
[2] = read-out: RB50 (the source's name)

T5 sequence (Q9H792 whole entry): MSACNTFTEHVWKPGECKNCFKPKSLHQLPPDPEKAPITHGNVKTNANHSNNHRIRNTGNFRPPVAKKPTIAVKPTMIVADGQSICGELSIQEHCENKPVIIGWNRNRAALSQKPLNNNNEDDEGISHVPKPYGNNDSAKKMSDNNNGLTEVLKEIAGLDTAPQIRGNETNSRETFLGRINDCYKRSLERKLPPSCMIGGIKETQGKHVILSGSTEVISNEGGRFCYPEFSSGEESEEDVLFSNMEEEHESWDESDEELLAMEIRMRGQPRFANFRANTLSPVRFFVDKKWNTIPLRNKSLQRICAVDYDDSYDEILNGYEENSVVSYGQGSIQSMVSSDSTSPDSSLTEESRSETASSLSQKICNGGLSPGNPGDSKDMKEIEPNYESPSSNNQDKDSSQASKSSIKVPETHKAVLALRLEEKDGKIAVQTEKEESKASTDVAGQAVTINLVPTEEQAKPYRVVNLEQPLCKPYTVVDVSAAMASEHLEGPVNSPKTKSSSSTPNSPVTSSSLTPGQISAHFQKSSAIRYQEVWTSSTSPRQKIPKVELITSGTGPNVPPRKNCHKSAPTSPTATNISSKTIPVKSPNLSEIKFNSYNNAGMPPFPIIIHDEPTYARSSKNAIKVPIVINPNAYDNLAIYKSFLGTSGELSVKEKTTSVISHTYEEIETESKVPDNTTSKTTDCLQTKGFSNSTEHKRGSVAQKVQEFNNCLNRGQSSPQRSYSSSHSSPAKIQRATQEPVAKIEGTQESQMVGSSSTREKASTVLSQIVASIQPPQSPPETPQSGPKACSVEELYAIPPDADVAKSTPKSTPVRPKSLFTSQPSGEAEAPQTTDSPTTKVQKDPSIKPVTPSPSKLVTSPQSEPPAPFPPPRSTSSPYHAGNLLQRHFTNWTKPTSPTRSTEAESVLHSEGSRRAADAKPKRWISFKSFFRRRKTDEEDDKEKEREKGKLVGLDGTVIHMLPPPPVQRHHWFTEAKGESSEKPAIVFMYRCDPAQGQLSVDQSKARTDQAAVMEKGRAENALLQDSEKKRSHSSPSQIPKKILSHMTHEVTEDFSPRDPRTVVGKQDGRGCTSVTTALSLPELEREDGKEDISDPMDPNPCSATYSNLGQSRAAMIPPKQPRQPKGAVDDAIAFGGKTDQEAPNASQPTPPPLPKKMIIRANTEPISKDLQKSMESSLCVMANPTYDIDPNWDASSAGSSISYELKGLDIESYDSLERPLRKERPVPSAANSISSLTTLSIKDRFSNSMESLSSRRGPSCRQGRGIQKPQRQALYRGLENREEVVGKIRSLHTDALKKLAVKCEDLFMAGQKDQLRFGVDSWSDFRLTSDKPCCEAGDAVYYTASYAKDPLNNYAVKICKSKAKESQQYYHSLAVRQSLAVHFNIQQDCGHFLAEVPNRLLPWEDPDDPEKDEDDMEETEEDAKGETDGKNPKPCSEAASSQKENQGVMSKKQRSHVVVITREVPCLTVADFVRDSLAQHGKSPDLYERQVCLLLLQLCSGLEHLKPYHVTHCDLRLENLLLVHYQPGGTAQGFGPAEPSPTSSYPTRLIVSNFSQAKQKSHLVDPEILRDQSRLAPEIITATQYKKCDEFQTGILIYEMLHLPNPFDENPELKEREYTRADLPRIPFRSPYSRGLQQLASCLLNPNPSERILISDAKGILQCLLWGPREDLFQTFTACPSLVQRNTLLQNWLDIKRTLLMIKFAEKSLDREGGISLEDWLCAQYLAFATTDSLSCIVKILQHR
T1 sequence (Q9Y6R4 whole entry): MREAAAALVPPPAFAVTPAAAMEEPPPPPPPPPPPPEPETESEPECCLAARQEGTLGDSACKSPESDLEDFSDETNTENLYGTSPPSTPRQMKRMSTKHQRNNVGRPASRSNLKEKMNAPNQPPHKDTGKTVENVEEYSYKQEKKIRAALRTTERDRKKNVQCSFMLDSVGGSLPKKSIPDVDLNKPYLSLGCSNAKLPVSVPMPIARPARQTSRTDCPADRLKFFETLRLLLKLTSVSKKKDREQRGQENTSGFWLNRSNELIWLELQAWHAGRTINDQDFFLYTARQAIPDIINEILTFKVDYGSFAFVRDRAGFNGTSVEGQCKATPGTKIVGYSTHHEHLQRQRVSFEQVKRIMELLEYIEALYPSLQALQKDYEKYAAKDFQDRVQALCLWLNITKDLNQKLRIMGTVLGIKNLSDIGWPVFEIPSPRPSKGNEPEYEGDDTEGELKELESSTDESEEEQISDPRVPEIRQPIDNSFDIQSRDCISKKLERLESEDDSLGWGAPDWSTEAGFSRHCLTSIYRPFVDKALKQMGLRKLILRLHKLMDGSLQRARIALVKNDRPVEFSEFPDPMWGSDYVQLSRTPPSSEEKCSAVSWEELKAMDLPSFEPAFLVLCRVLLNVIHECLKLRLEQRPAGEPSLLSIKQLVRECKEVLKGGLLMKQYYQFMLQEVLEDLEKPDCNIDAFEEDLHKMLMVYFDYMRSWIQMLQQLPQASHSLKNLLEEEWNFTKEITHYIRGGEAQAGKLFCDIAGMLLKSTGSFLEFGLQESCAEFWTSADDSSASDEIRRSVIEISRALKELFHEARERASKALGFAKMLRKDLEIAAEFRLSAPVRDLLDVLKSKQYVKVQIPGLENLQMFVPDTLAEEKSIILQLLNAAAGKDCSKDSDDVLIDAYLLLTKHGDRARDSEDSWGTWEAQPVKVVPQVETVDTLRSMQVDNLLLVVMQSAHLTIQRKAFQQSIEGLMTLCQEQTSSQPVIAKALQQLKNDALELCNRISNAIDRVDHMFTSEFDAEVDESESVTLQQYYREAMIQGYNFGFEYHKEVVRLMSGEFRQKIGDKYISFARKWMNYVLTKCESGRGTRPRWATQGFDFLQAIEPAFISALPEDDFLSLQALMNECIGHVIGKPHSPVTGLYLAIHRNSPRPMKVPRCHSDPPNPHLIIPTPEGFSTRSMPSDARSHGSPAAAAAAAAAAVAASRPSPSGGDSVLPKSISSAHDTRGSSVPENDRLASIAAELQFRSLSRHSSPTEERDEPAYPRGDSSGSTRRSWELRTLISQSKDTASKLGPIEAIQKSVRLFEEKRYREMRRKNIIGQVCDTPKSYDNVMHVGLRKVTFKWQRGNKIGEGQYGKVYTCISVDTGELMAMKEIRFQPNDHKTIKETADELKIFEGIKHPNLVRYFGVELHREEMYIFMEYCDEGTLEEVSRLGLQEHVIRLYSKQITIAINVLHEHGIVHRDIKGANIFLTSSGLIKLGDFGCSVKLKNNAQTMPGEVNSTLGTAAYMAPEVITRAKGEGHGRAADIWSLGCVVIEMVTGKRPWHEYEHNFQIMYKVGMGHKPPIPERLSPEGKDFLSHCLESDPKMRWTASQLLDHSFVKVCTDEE

N#CCc1ccc(Nc2nc(NCCCN)cc(Nc3cc(C4CC4)[nH]n3)n2)cc1 [KAM]
IC50 (MAP3K4; [1]): > 10 µM | 0.001 uM KAM (MAP3K4; relative to 0 uM KAM = 0): -0.03643 | 0.01 uM KAM (MAP3K4; relative to 0 uM KAM = 0): -0.006572 | 0.1 uM KAM (MAP3K4; relative to 0 uM KAM = 0): -0.06704 | 1 uM KAM (MAP3K4; relative to 0 uM KAM = 0): -0.09539 | 10 uM KAM (MAP3K4; relative to 0 uM KAM = 0): -0.1299 | median Log10 fold change (MAP3K7; 0.001 uM KAM): -0.02589 | median Log10 fold change (MAP3K7; 0.01 uM KAM): -0.01486 | median Log10 fold change (MAP3K7; 0.1 uM KAM): -0.1357 | median Log10 fold change (MAP3K7; 1 uM KAM): -0.3563 | median Log10 fold change (MAP3K7; 10 uM KAM): -0.511 | IC50 (MAP3K7; [2]): 0.786 µM | median Log10 fold change (MAST4; 0.001 uM KAM): -0.03696 | median Log10 fold change (MAST4; 0.01 uM KAM): 0.002822 | median Log10 fold change (MAST4; 0.1 uM KAM): -0.135 | median Log10 fold change (MAST4; 1 uM KAM): -0.3289 | median Log10 fold change (MAST4; 10 uM KAM): -0.3337 | IC50 (MAST4; [2]): 1.26 µM | IC50 (MERTK; [1]): > 10 µM | 0.001 uM KAM (MERTK; relative to 0 uM KAM = 0): -0.05728 | 0.01 uM KAM (MERTK; relative to 0 uM KAM = 0): -0.0237 | 0.1 uM KAM (MERTK; relative to 0 uM KAM = 0): -0.04893 | 1 uM KAM (MERTK; relative to 0 uM KAM = 0): -0.1208 | 10 uM KAM (MERTK; relative to 0 uM KAM = 0): -0.2454 | IC50 (PEAK1; [1]): > 10 µM | 0.001 uM KAM (PEAK1; relative to 0 uM KAM = 0): 0.04051 | 0.01 uM KAM (PEAK1; relative to 0 uM KAM = 0): 0.04298 | 0.1 uM KAM (PEAK1; relative to 0 uM KAM = 0): 0.03477 | 1 uM KAM (PEAK1; relative to 0 uM KAM = 0): 0.09337 | 10 uM KAM (PEAK1; relative to 0 uM KAM = 0): 0.04238 | median Log10 fold change (PRKCA; 0.001 uM KAM): -0.02328 | median Log10 fold change (PRKCA; 0.01 uM KAM): -0.03535 | median Log10 fold change (PRKCA; 0.1 uM KAM): -0.1377 | median Log10 fold change (PRKCA; 1 uM KAM): -0.1636 | median Log10 fold change (PRKCA; 10 uM KAM): -0.4501 | IC50 (PRKCA; [2]): 3.16 µM | IC50 (TTN; [1]): > 10 µM | 0.001 uM KAM (TTN; relative to 0 uM KAM = 0): -0.03178 | 0.01 uM KAM (TTN; relative to 0 uM KAM = 0): 0.01596 | 0.1 uM KAM (TTN; relative to 0 uM KAM = 0): -0.008464 | 1 uM KAM (TTN; relative to 0 uM KAM = 0): 0.03427 | 10 uM KAM (TTN; relative to 0 uM KAM = 0): 0.01084
